Reference: patent publication US11998610B2, “Conjugates and methods of using the same” (Flagship Pioneering Innovations V, Inc., priority 2018, dated 2024)
Non-standard residues stand in square brackets, D forms with d. Residues, ends and D or L forms follow the SMILES beside them. *: point of attachment. Myristoyl = CCCCCCCCCCCCCC(=O)*; Octanoyl = CCCCCCCC(=O)*

How the values were obtained:
[1] = test system: E. coli CFT073 ATCC 700928 and/or E. coli Nissle 1917; assay: Cell-based assay with ClbP with LCMS, ClbP positive strain; conditions: ClbP-encoding E. coli, 10 μM compound, 37° C., 20 h
In short: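 Compound (10 μM final) incubated 20 h at 37° C, aerobically, with 1:40-diluted overnight cultures of ClbP-positive E. coli or negative BL21(DE3), in duplicate, alongside uninoculated LB. Remaining parent quantified by LC-MS/MS (MRM) after acetonitrile quench, expressed as percent of media-alone.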

WT ClbP = assay: Assay with purified ClbP protein (LCMS); type: biochemical, E. coli; conditions: 20 μM WT ClbP, 500 μM compound, room temperature, 24 h
Experimental: This example is representative of the method described in Example 91 the soluble peptidase domain (amino acids 38 to 375) of ClbP or the catalytically inert mutant S95A was cloned into pET28a using previously defined boundaries as a starting point (Brotherton, J. Am. Chem. Soc., 135:3359-3362, 2013).
WT ClbP or S95A ClbP was isolated as an N-terminally tagged HiS6-SUMO1-fusion protein from […] using E. coli BL21(DE3)RIPL to express the protein. The cells were lysed in 30 mM Tris pH 8.0, 300 mM NaCl, 10% (v/v) glycerol, benzonase (Sigma-Millipore), lysozyme, B-per (ThermoFisher), and Y-per (ThermoFisher). The lysate was clarified via centrifugation (13,000 g, 20 min), and the supernatant was incubated with HiBond Ni-NTA agarose (5 mL). The resin was subsequently washed with wash buffer (30 mM Tris pH 7.5, 250 mM NaCl, 10 mM imidazole, 3% (v/v) glycerol, and 2 mM TCEP). The resin was incubated at 30° C. for 1 h with 1.4 mg ULP1 protease. The resin was then washed with an additional fraction of wash buffer. Centrifuge filtration was used to concentrate the protein, and the concentrated protein was subsequently applied to a 16/600 Superdex 200 size exclusion column with an isocratic elution of 25 mM HEPES, 25 mM Tris pH 7.4, 325 mM NaCl, 10 mM KCl and 3% (v/v) glycerol at a flow rate of […]. The fractions containing the protein were determined by SDS-PAGE, combined, and concentrated by centrifuge filtration. 3 mM TCEP was added to the concentrated protein, which was then aliquoted, flash frozen in liquid N2, and stored at −80° C.
This example is representative of the method described in Example D, ClbP was incubated with test compounds in an in vitro assay. In a typical assay, 0, 1, or 20 μM purified WT or S95A ClbP was incubated with 100 or 500 μM compound in reaction buffer (50 mM Tris-HCl pH 7.5, 37.5 mM NaCl) at room temperature for 24 h. The total volume of this reaction was 150 μL.
After 24 h, 2 volumes of acetonitrile (300 μL) were added to the reaction to quench the solution.
The reaction was centrifuged (4,000 g, 15 min), and then the supernatant was analyzed by LCMS. 5 μL of the supernatant was injected onto an Acquity UPLC BEH C18 1.7 μm 2.1×100 column. Buffer A was 0.1% (v/v) formic acid in water and buffer B was 0.1% (v/v) formic acid in acetonitrile. The flow rate was 0.5 mL/min. The initial % B was 10, which was held for 30 s then ramped up to 90% B over 3 min, held at 90% B for 1 min, ramped down to 10% B over 15 s, and then held at 10% B for 15 s. The UV-Vis spectrum from 210-400 nm was monitored with 3.6 nm resolution. Positive and negative mode ESI were monitored from 100-1000 m/z with a 20 V cone voltage at 5 Hz sampling frequency in centroid collection.
The relative starting material remaining in the WT ClbP reaction was determined by LCMS and then compared to the residual starting material in the no-enzyme and catalytically inert enzyme (S95A ClbP) reactions. In an ideal case, the amount of residual starting material in the WT ClbP reaction was <25% of the amount in the S95A ClbP and no-enzyme conditions. In an acceptable case, the amount of residual starting material in the WT ClbP reaction was 25-75% of the amount in the S95A ClbP and no-enzyme conditions. In a non-preferred case, the amount of residual starting material in the WT ClbP reaction was >75% of the amount in the S95A ClbP and no-enzyme conditions.
Formation of the anticipated product was likewise quantified by LCMS analysis and confirmed by coelution with an external product standard. In an ideal case, the amount of product formed in the WT ClbP reaction corresponded to >75% of the theoretical maximum. In an acceptable case, the amount of product formed in the WT ClbP reaction corresponded to 25-75% of the theoretical maximum. In a non-preferred case, the amount of product formed in the WT ClbP reaction corresponded to <25% of the theoretical maximum.

SMILES | % Remaining in ClbP Positve Relative to Media-Only [1] | Status (compound remaining in WT ClbP reaction relative to no-enzyme control) (WT ClbP)
CCCCCCCCCCCCCC(=O)N[C@H](CC(N)=O)C(=O)N[C@@H](C)C(=O)OC [Example 1, Methyl tetradecanoyl-D-asparaginyl-L-alaninate] (Myristoyl-[dN]-Ala-OMe) | + (between 25-75% compound remaining in the 20 μM WT ClbP reaction relative to the no-enzyme control) | − (>75% compound remaining in the 20 μM WT ClbP reaction relative to the no-enzyme control)
CCCCCCCC(=O)N[C@@H](CC(N)=O)C(=O)N[C@@H](C)C(=O)OC [Example 4, Methyl octanoyl-L-asparaginyl-L-alaninate] (Octanoyl-Asn-Ala-OMe) | ++ (<25% compound remaining in the 20 μM WT ClbP reaction relative to the control) | − (>75% compound remaining in the 20 μM WT ClbP reaction relative to the no-enzyme control)
